Legend:
[1] = test system: retinal neovascularization induced by anoxia; assay type: in vivo; conditions: intravitreal AU6 (5 μg, 10 μg) 12 days after birth, read 17 days after birth, vs model-treated group
Method: 1.1 Materials and Main Devices: Healthy, neonatal C57B1/6 mice, 7 days age, weighing about 4 g were purchased from Laboratory Animal Center of Chinese Academy of Sciences. The sex of the mice was not limited. FITC-dextran (molecular weight about 2*10^6) was purchased from SIGMA, USA.
1.2 Preparation of Model and Intervention Test: Neonatal mice of 10 nests were randomly grouped into 5 groups, which respectively were oxygen group, oxygen plus PBS group, oxygen plus 5 μg AU6 group, oxygen plus 10 μg AU6 group, and control group, with 10-11 mice for each group. Seven days after birth, except the control group, all of the other groups of mice were placed in an airproof drying cabinet together with their mother mice of the same nest. Wet pure oxygen was introduced into the drying cabinet, and the oxygen concentration in volume was maintained as 75%±5%. The oxygen concentration was measured every 3-6 hours by using oxygen meter. The control group was incubated normally in air. Twelve days after birth, 0.5 μl PBS solution containing respectively 0, 5 μg, and 10 μg AU6 were injected into the vitreous chambers of the mice in the oxygen plus PBS group and in the oxygen plus AU6 group (5 μg, and 10 μg).
1.3 FITC-dextran Retinal Angiography and Flat-mounts: Seventeen days after birth, 50 mg/ml FITC-dextran solution were perfused into the left ventricle of mice in each group. Then the eyeballs immediately were obtained, fixed in paraformaldehyde solution for 5-24 hours at 4° C. And then the retinas were isolated and flat-mounted. The morphological change of the retinal blood vessel was observed under fluorescence microscope.
1.4 Quantitative Measurement of Retinal Neovascularization: The animals in each group were sacrificed by excessive anaesthesia 17 days after birth. The eyeballs were obtained, and fixed in 10% neutral formaldehyde, and then subjected to histopathological examination. […] The numbers of the nucleus of the vascular endothelial cells which broke through the retinal inner limiting membrane were counted under light microscope. […]

[2] = test system: corneal angiogenesis induced by VEGF; assay type: in vivo
From the text: 1.2 Experimental Animal and Material: Healthy, male C57B1/6 mice of 5-6 weeks old weighing about 20 g were purchased from Laboratory Animal Center of Chinese Academy of Sciences. Sucrose octasulfate-aluminum complex was purchased from Sigma-Aldrich, USA. PolyHEMA (poly(2-hydroxyethylmethacylate)) was purchased from Aldrich, USA. And human recombinant VEGF165 was purchased from SIGMA, USA.
1.2 Preparation of Model and Intervention Test: 12% PolyHEMA in an ethanol solution was mixed with an equal volume of normal saline solution containing sucrose octasulfate-aluminum complex powder, thus forming blank slow-release particles with a volume of 0.35 mm*0.35 mm*0.20 mm. 160 ng of VEGF and different amounts (0 μg, 1.0 μg, 2.0 μg) of the small peptides were added into said particles. The resultant products were stored at −20° C., ready for use. The above operations were done under a sterile condition. Thirty C57B1/6 mice (30 eyes) were randomly grouped into a control group (VEGF group), VEGF+1.0 μg AU6 group, and VEGF+2.0 μg AU6 group, with 10 eyes for each group. Under a sterile condition, 23G syringe needle was used to perform blunt separation between the layers of the corneal stroma in the experimental eyes, so as to form a pouch of 0.5 mm*0.5 mm. The particles containing 160 ng VEGF and different amounts of small peptides were implanted into the pouches in the ocular cornea in the mice of each group, and were made to have a distance of 0.6-0.8 mm from limbus. After operation, 0.5% aureomycin oculentum was applied to the eyes to prevent infection and reduce irritation. Photos were obtained 7 days after operation to observe the growth of newly generated blood vessel in the cornea, and a histopathological examination was performed concurrently.
1.3 Quantitative Measurement of Corneal Neovascularization: the length of the new blood vessels grown from limbus was measured 7 days after operation. The area of the new blood vessel was calculated based on the longest blood vessel which had less continuous bending and which grew toward the slow release particles. Formula is as follows: Area (mm^2)=[…]*π*VL (mm)*CN*0.4 (mm), wherein VL is the length of the longest new blood vessel grown from limbus to the cornea (maximal vessel length), and CN represents the clock hours of corneal neovascularization (the cornea is dividing into clock hours).
1.4 Qualitative Observation of Corneal Neovascularization: Each group of animals was sacrificed by excessive anaesthesia 7 days after operation. The eyeballs were obtained under a sterile condition, and fixed in 10% neutral formaldehyde, and then subjected to histopathological examination. The samples were embedded within paraffin and cut into 3 μm sections, HE stained, and observed under light microscope.
1.5 Statistical Analysis: The experimental data were represented as x±s. The length of the longest new blood vessel in cornea, clock hours and area for each group were compared by one-way ANOVA. P<0.05 indicates statistical significance.

[3] = test system: chick embryo chorioallantoic membrane; assay type: in vivo; conditions: 10 μg or 50 μg AU6 on filter paper, 2 days, vs PBS control group
Method: 1.2 Preparation of Model and Intervention Test: The chick fertile eggs of 1-2 days old were randomly grouped into 3 groups, which were respectively a control group, a 10 μg AU6 intervention group, and a 50 μg AU6 intervention group, with 9-15 eggs for each group. The surface of the fertile eggs was cleansing with tap water, and then the eggs were soaked in 0.2% benzalkonium bromide (bromo-geramine) solution for 5-10 minutes. The eggs were placed with the blunt end upward, and hatched in an incubator under 37° C. and 60-70% humidity. The eggs were overturned for at least two times per day, and were hatched for 5 days with 24 hours as one day. Under sterile condition, a small hole of about 1-2cm^2 was created at the blunt end (air chamber end) with a nipper. […] Whatman filter papers with a diameter of 5mm were used as a sample carrier, each of which adsorbed 5 μl of PBS solution containing 0 μg, 10 μg or 50 μg of AU6. After air drying, the papers were placed into the center of the chorioallantoic membrane. […]
1.3 Counting the Number of Micrangiums in the Chorioallantoic Membrane: the adhesive tape was removed, and the micrangiums newly generated on the chorioallantoic membrane were observed. The number of micrangiums (with diameter no greater than 10 μm) within 5 mm around the filter paper for each group was counted under stereomicroscope. […]

[4] = Water solubility of synthesized polypeptide; assay type: physicochemical; conditions: white powder
[5] = 160 ng VEGF + 1.0 or 2.0 μg AU6 slow-release particles, 7 days after operation, vs control group
[6] = 7 days after operation, AU6 intervention group

In the case of “YRGKKA ((1)..(6) Peptide AU6 for inhibiting angiogenesis)”, the “neovascular clusters (FITC-dextran retinal flat-mounts)” value [1] is reported as “reduced”, the “non-perfusion area (FITC-dextran retinal flat-mounts)” value [1] is reported as “narrowed” and the “nucleus of vascular endothelial cells which broke through the inner limiting membrane” value [1] is reported as “obviously less”. The “clock hours of corneal neovascularization” value [2, 5] was “significant decrease”, the “longest blood vessel length of the new blood vessel” value [2, 5] was “significant decrease” and the “area of blood vessel” value ([2]; 160 ng VEGF + 1.0 or 2.0 μg AU6 slow-release particles, 7 days after operation, vs control group, calculated from VL and CN) was “significant decrease”. The “blood capillary lumens in corneal stroma (HE stained sections)” value [2, 6] was “very few”, the “oedema in the corneal tissue (HE stained sections)” value [2, 6] was “no obvious oedema” and the “toxicity to each layer of corneal tissues” value ([2]; mouse, in vivo) was “not observed”. The “numbers of micrangiums within 5 mm around the filter paper” value [3] was “significantly less” and the water solubility [4] was “good”.

Reference: patent publication US8933031B2, “Polypeptide inhibiting angiogenesis and application thereof” (Shanghai First People's Hospital, priority 2008, dated 2015)
